From patent publication US7678803B2, “Quinazoline derivatives for the treatment of cancer” (Serenex, Inc., priority 2006, dated 2010)

Tested on: HSP-90 (heat shock protein 90)
Experiment: Determination of affinity for HSP-90 (elution from purine affinity column); note: key: +++: very high; ++: high; +: moderate
Conditions: relative binding affinity to HSP-90
Method: Affinity of test compounds for HSP-90 is determined as follows: Protein mixtures obtained from a variety of organ tissues (for example: spleen, liver and lung) are reversibly bound to a purine affinity column to capture purine-binding proteins, especially HSP-90. […] The elution profile of Formula I compounds is determined by 1-dimensional SDS polyacrylamide gel electrophoresis. Gels are stained with a fluorescent stain such as sypro ruby (a highly sensitive fluorescent protein stain that can readily detect less than 1 fmol of total protein, i.e., less than 0.04 ng for a 40 kDa protein) or silver nitrate. The gels are imaged using a standard flat bed gel imager and the amount of protein estimated by densitometry. The percent of HSP-90 protein eluted from the column at each concentration is determined and IC50 values are calculated from these estimates.

| SMILES | Affinity |
| --- | --- |
| Cc1cn(-c2ccc3c(Cl)nccc3c2)c2c1C(=O)CC(C)(C)C2 [Compound 44, 1-(1-chloroisoquinolin-6-yl)-3,6,6-trimethyl-6,7-dihydro-1H-indol-4(5H)-one] | + |
| COCCCOc1c(-n2cc(C)c3c2CC(C)(C)CC3=O)ccc2c(N)ncnc12 [Compound 60, 1-(4-amino-8-(3-methoxypropoxy)quinazolin-7-yl)-3,6,6-trimethyl-6,7-dihydro-1H-indol-4(5H)-one] | +++ |
| Cc1nc(N)c2ccc(-n3cc(C)c4c3CC(C)(C)CC4=O)cc2n1 [Compound 40, 1-(4-amino-2-methylquinazolin-7-yl)-3,6,6-trimethyl-6,7-dihydro-1H-indol-4(5H)-one] | +++ |
| Cc1cn(-c2ccc3c(N)ncnc3c2SCCNC(=O)OC(C)(C)C)c2c1C(=O)CC(C)(C)C2 [Compound 77, tert-butyl 2-(4-amino-7-(3,6,6-trimethyl-4-oxo-4,5,6,7-tetrahydro-1H-indol-1-yl)quinazolin-8-ylthio)ethylcarbamate] | ++ |
| Cc1nn(-c2ccc3c(N)ncc(C(N)=O)c3c2)c2c1C(=O)CC(C)(C)C2 [Compound 99, 1-amino-6-(3,6,6-trimethyl-4-oxo-4,5,6,7-tetrahydro-1H-indazol-1-yl)isoquinoline-4-carboxamide] | ++ |
| Cc1cn(-c2ccc3c(N)nc(N)nc3c2)c2c1C(=O)CC(C)(C)C2 [Compound 41, 1-(2,4-diaminoquinazolin-7-yl)-3,6,6-trimethyl-6,7-dihydro-1H-indol-4(5H)-one] | +++ |
| COc1cc(-n2cc(C)c3c2CC(C)(C)CC3=O)cc2ncnc(N)c12 [Compound 76, 1-(4-amino-5-methoxyquinazolin-7-yl)-3,6,6-trimethyl-6,7-dihydro-1H-indol-4(5H)-one] | ++ |
| Cc1cn(-c2cc(F)c3c(N)ncnc3c2)c2c1C(=O)CC(C)(C)C2 [Compound 63, 1-(4-amino-5-fluoroquinazolin-7-yl)-3,6,6-trimethyl-6,7-dihydro-1H-indol-4(5H)-one] | + |
| CC1(C)CC(=O)c2c(C(F)(F)F)nn(-c3ccc4c(N)ncc(Br)c4c3)c2C1 [Compound 46, 1-(1-amino-4-bromoisoquinolin-6-yl)-6,6-dimethyl-3-(trifluoromethyl)-6,7-dihydro-1H-indazol-4(5H)-one] | + |
| Cc1cn(-c2ccc3c(N)ncnc3c2SCCO)c2c1C(=O)CC(C)(C)C2 [Compound 93, 1-(4-amino-8-(2-hydroxyethylthio)quinazolin-7-yl)-3,6,6-trimethyl-6,7-dihydro-1H-indol-4(5H)-one] | +++ |
| C#CCOc1cc(-n2cc(C)c3c2CC(C)(C)CC3=O)cc2ncnc(N)c12 [Compound 71, 1-(4-amino-5-(prop-2-ynyloxy)quinazolin-7-yl)-3,6,6-trimethyl-6,7-dihydro-1H-indol-4(5H)-one] | + |
| Cc1nn(-c2ccc3c(N)ncc(C#N)c3c2)c2c1C(=O)CC(C)(C)C2 [Compound 98, 1-amino-6-(3,6,6-trimethyl-4-oxo-4,5,6,7-tetrahydro-1H-indazol-1-yl)isoquinoline-4-carbonitrile] | ++ |
| Cc1nn(-c2ccc3c(N)ncnc3c2F)c2c1C(=O)CC(C)(C)C2 [Compound 95, 1-(4-amino-8-fluoroquinazolin-7-yl)-3,6,6-trimethyl-6,7-dihydro-1H-indazol-4(5H)-one] | +++ |
| CCCCOc1c(-n2cc(C)c3c2CC(C)(C)CC3=O)ccc2c(N)ncnc12 [Compound 53, 1-(4-amino-8-butoxyquinazolin-7-yl)-3,6,6-trimethyl-6,7-dihydro-1H-indol-4(5H)-one] | +++ |
| Cc1cn(-c2ccc3c(N)ncnc3c2)c2c1C(=O)CCC2 [Compound 45, 1-(4-aminoquinazolin-7-yl)-3-methyl-6,7-dihydro-1H-indol-4(5H)-one] | ++ |
| Cc1cn(-c2ccc3c(N)ncnc3c2O)c2c1C(=O)CC(C)(C)C2 [Compound 68, 1-(4-amino-8-hydroxyquinazolin-7-yl)-3,6,6-trimethyl-6,7-dihydro-1H-indol-4(5H)-one] | +++ |
